Source: patent publication US9808428B2, “Compositions and methods for the delivery of therapeutics” (priority 2014, dated 2017)

Tested on: HIV-1ADA
Test: Antiretroviral activity by reverse transcriptase (RT) activity in HIV-1 infected MDM
Type: cell-based
Details: 30-100 μM; MDM challenged with HIV-1ADA >15 days after 8 hours of treatment
Protocol: The antiretroviral activity was determined by reverse transcriptase (RT) activity and HIV-1 p24 antigen expression in HIV-1 infected MDM. […] Overall, development of long acting targeted MVC, optionally together with reverse transcriptase, protease and/or integrase inhibitors leads to improved pharmacokinetics of cART and promote improved drug adherence and access.

Cc1nnc(C(C)C)n1C1C[C@H]2CC[C@@H](C1)N2CC[C@H](NC(=O)C1CCC(F)(F)CC1)c1ccccc1 (stereo in doubt) [free MVC, maraviroc]
RT activity reductions compared to untreated infected cells: 22%
